Reference: ChEMBL document CHEMBL1150567, “Three new phenolic compounds from a manipulated plant cell culture, Mirabilis jalapa” (J Nat Prod, 2001)
Values after ≈ are worked out from the molar mass of the structure shown.

Columns and labels:
[1] = test system: Candida albicans; test: Antifungal activity against wild type Candida albicans SC5314 after 24 hrs by XTT assay; type: functional, organism-based; details: SC5314, 24 h
[2] = test system: Candida albicans; test: Antifungal activity against MDR knockout Candida albicans DSY1024 after 24 hrs by XTT assay; type: functional, organism-based; details: DSY1024, 24 h

Work on COc1cc2c(c(O)c1C)C(=O)[C@@]1(O)c3cccc(O)c3O[C@@H](OC)[C@@H]1O2 yielded an IC50 [1] of over 200 µg/mL and an IC50 [2] of over 200 µg/mL.
COc1ccccc1-c1coc2cc(O)c(C)c(O)c2c1=O gave an IC50 [1] of 16 µg/mL (≈ 53.6 µM) and an IC50 [2] of 25 µg/mL (≈ 83.8 µM).
For COc1cc2oc3c(c(=O)c2c(O)c1C)-c1cccc(O)c1OC3O (stereo unspecified) [9-O-METHYL-4-HYDROXYBOERAVINONE B], the IC50 [1] was over 200 µg/mL and the IC50 [2] was 48 µg/mL (≈ 140 µM).
C[C@@H]1[C@H](O)[C@@H](C)/C=C/C=C/C=C/C=C/C=C/C=C/C=C/[C@H](O[C@@H]2O[C@H](C)[C@@H](O)[C@H](N)[C@@H]2O)C[C@@H]2O[C@](O)(C[C@@H](O)C[C@@H](O)[C@H](O)CC[C@@H](O)C[C@@H](O)CC(=O)O[C@H]1C)C[C@H](O)[C@H]2C(=O)O [AMPHOTERICIN B] was tested, and the IC50 [1] was 0.15 µg/mL (≈ 0.162 µM) and the IC50 [2] was 0.19 µg/mL (≈ 0.206 µM).
With COc1ccc(-c2coc3cc(O)cc(O)c3c2=O)cc1 [BIOCHANIN] the IC50 [1] was over 100 µg/mL and the IC50 [2] was over 100 µg/mL.
For O=c1c(-c2ccc(O)cc2)coc2cc(O)ccc12 [DAIDZEIN], the IC50 [1] was over 100 µg/mL and the IC50 [2] was over 100 µg/mL.
Molecule OC(Cn1cncn1)(Cn1cncn1)c1ccc(F)cc1F [FLUCONAZOLE] has an IC50 [1] of 0.18 µg/mL (≈ 0.588 µM) and an IC50 [2] of 6.7 µg/mL (≈ 21.9 µM).
O=c1c(-c2ccc(O)cc2)coc2cc(O)cc(O)c12 [GENISTEIN] gave an IC50 [1] of over 100 µg/mL and an IC50 [2] of over 100 µg/mL.
